Where a name gives a salt, the structure may show the parent alone.
Tests used:
[1] = test system: conditioned avoidance response; experiment: conditioned avoidance (shelf-jump response) test; format: in vivo, male CD rats; conditions: rats; for Active at: i.p.
Procedure: A test designed to determine the potential antipsychotic activity of the compounds of the invention is the conditioned avoidance (shelf-jump response) test.
This test is carried out as follows:
Male CD rats (Charles River) maintained at approximately 400-450 gm body weight are used. […] A moveable wall, controlled by a motor, determines whether the rat has access to the shelf at any time during the experiment. The experimental chamber also contains a house light and sonalert. A steel grid floor in the main chamber is wired for presentation of electric shock. Each trial consists of a fifteen-second warning tone (conditioned stimulus), continuing for an additional fifteen seconds accompanied by electric shock (unconditioned stimulus). A response (jumping onto the exposed shelf of the upper chamber) occurring during the initial fifteen-second warning tone is considered an avoidance response, while a response occurring during shock delivery is considered an escape response. Trials are presented on a fixed interval schedule of one minute. The session consists of thirty-six trials. Animals are run twice weekly with control sessions always preceding a drug run, and with at least one day intervening. Compounds are administered i.p. or p.o. at appropriate pre-treatment times to a minimum of five rats at each dose level over a range of doses.
The following experimental parameters are recorded by computer: (1) the number of avoidance responses, (2) the number of escape responses, and (3) the number of trials in which no response occurred.
Response counts are summed over all subjects at a given dose. […] This number is expressed as a percentage of the total trials. Control performance is arbitrarily assigned a value of 100% for avoidance responding and the dose calculated to produce a 50% block in avoidance responding (AB50) is obtained from a dose-effect regression line fitted by the method of least squares. Potential antipsychotic compounds suppress avoidance responding and increase escape responding.

[2] = test system: apomorphine-induced stereotyped behavior (in vivo dopamine receptor blocking activity); conditions: i.p., mice; inactivity taken as low potential for extrapyramidal side effects
[3] = molecular target: limbic D-2 dopamine receptor (Rattus norvegicus, UniProt P61169); experiment: inhibition of limbic D-2 dopamine receptor binding (3H-spiroperidol); conditions: read-out: Limbic D-2 Binding Inhibition, % inhibition at 1 μM
Sequence of limbic D-2 dopamine receptor (P61169 whole entry): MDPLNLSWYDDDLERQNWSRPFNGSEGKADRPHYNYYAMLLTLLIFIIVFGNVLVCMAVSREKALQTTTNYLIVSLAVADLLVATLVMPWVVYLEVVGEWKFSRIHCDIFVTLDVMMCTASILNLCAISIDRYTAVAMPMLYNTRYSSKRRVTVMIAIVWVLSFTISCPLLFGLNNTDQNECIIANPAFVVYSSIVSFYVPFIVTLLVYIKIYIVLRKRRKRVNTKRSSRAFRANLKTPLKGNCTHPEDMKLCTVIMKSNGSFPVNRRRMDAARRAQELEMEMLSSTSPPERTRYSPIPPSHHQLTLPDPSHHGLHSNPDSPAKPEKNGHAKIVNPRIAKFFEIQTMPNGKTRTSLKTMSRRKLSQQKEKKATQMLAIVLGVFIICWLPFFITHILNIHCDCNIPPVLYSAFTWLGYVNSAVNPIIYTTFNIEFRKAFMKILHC
Procedure: This in vitro assay measures the ability of the compounds tested to bind to the dopamine receptor sites.
The assay is carried out as follows:
Several rats are decapitated and the brains are rapidly removed. Limbic brain tissue (nucleus accumbens, septal area, olfactory tubercle) is dissected and homogenized on ice in 9 volumes of buffer (50 mM Tris-HCl, 120 mM NaCl, 5 mM KCl, 1 mM CaCl2, 1 mM MgCl2, 0.1% L-ascorbic acid, 10 μM pargyline HCl, pH 7.1) using a Polytron homogenizer at setting 5 for three 15-sec bursts. The homogenate is then diluted 4-fold with buffer and centrifuged at 30,000×g for 20 min, and the supernatant is discarded. The pellet is resuspended in the same volume of buffer and recentrifuged as before, again discarding the supernatant. This pellet is then resuspended in the same volume of buffer used in the homogenization, and the protein content of this preparation is assayed by the Lowry method. The homogenate is stored frozen at -70° C. until use.
At the end of the incubation, 3 ml of cold 50 mM Tris-HCl, pH 7.7, are added to each tube, and the contents are rapidly vacuum-filtered through Whatman GF/B glass-fiber filters. The filters are then rapidly washed 3 times with 3 ml of the same buffer, placed in scintillation vials, and shaken for 15 min with 10 ml of Hydrofluor (National Diagnostics) scintillation cocktail. The vials are then counted in a Packard 460CD scintillation counter.
Specific binding is defined as total binding less binding in the presence of 1 μM (+)butaclamol. Binding in the presence of various concentrations of test drug is expressed as a per cent of specific binding when no drug is present.

Structure (SMILES) | ED50 ([1]; Rattus norvegicus, ip, read-out: AB50 (50% block in avoidance responding)) [mg/kg] | activity in apomorphine-induced stereotyped behavior assay [2] | Active at [1] [mg/kg] | inhibition at 1 µM [3] [%]
O=C1CC2(CCCC2)CC(=O)N1CCCCN1CCN(c2ncccn2)CC1 [Buspirone, 8-[4-[4-(2-pyrimidinyl)-1-piperazinyl]butyl]-8-azaspiro[4.5]decane-7,9-dione, reference compound] | 9.44 | inactive | – | –
Cl.O=C1C2C3C=CC(C3)C2S(=O)(=O)N1CCCCc1ccncc1 (stereo not drawn) [Example 3, 3a,4,7,7a-Tetrahydro-2-[4-(4-pyridinyl)butyl]-4,7-methano-1,2-benzisothiazol-3(2H)-one 1,1-dioxide, hydrochloride] | – | – | 40 | 1
CC1=C(C)CC2C(C1)C(=O)N(CCCCc1ccncc1)S2(=O)=O.Cl (stereo not drawn) [Example 5, 3a,4,7,7a-Tetrahydro-5,6-dimethyl-2-[4-(4-pyridinyl)butyl]-1,2-benzisothiazol-3(2H)-one 1,1-dioxide, hydrochloride] | – | – | 40 | 56
O=C1C2C3CCC(O3)C2S(=O)(=O)N1CCCCC1CCN(c2cncc(Cl)n2)CC1 (stereo not drawn) [Example 4, Hexahydro-2-[4-[1-(6-chloro-2-pyrazinyl)-4-piperidinyl]butyl]-4,7-epoxy-1,2-benzisothiazol-3(2H)-one 1,1-dioxide, hydrochloride, hydrate] | – | – | – | 7
O=c1c2ccccc2[s+]([O-])n1CCCCc1ccncc1 (stereo not drawn) [Example 7, 2-[4-(4-Pyridinyl)butyl]-1,2-benzisothiazol-3(2H)-one 1-oxide, hydrochloride] | – | – | – | 14
O=C1C2C3CCC(O3)C2S(=O)(=O)N1CCCCC1CCN(c2ncccn2)CC1 (stereo not drawn) [Example 2, Hexahydro-2-[4-[1-(2-pyrimidinyl)-4-piperidinyl]butyl]-4,7-epoxy-1,2-benzisothiazol-3(2H)-one 1,1-dioxide, hydrochloride, monohydrate] | – | – | – | 6
O=C1C2C3CCC(O3)C2S(=O)(=O)N1CCCCC1CCN(c2cnccn2)CC1 (stereo not drawn) [Example 6, Hexahydro-2-[4-[1-(2-pyrazinyl)-4-piperidinyl]butyl]-4,7-epoxy-1,2-benzisothiazol-3(2H)-one 1,1-dioxide, hydrochloride, hemihydrate] | – | – | – | 6
Cl.O=C1C2C3CCC(O3)C2S(=O)(=O)N1CCCCc1ccncc1 (stereo not drawn) [Example 1, Hexahydro-2-[4-(4-pyridinyl)butyl]-4,7-epoxy-1,2-benzisothiazol-3(2H)-one 1,1-dioxide, hydrochloride] | – | – | 40 | 3
